What was measured:
[1] = test system: Fe—S clusters bound to immunoprecipitated CSPα; experiment: UV-Vis absorbance spectra of CSPα immunoprecipitated from ANCL patient fibroblasts; format: cell-based, human; conditions: 200 μM, 72 h, compared to control (0.1% DMSO), FIG. 7A
Protocol: ANCL patient-derived fibroblasts were treated with 200 μM of L1 or Dfx, or vehicle (0.1% DMSO=Control) for 72 h, before measuring the UV-Vis absorbance spectra of immunoprecipitated CSPα eluted by trypsinization (solid lines). Spectra were re-read after 10 min of 0.1 N HCl treatment (dashed lines). The experiments shown in FIGS. 7B-7I, were conducted using ANCL fibroblasts converted to iNs using BAM+ND1 technique. […] Quantitative immunoblotting was used to measure levels of oligomerized and fully palmitoylated CSPα as well as total SNAP-25. Oligo=oligomers; Palm=palmitoylated. […] The interaction of CSPα with SNAP-25 in ANCL iNs was measured by immunoprecipitating SNAP-25 followed by quantitative immunoblotting of co-immunoprecipitated CSPα (normalized to SNAP-25 IP). Note that mainly CSPα monomers and not oligomers were detected bound to SNAP-25. Control=control sham IP without IgG. […] Turnover of SNAP-25 was determined by cycloheximide chase, while maintaining the iron-chelators or vehicle in the medium. […] In the experiments shown in FIGS. 7E-7G, ANCL iNs treated with L1, Dfx, or vehicle for 56 d and analyzed. […] The levels of lipofuscin were determined by ELISA. In the experiments shown in FIGS. 7H-7I 56 day old untreated ANCL iNs were treated with L1, Dfx, or vehicle, and analyzed. […]

ANCL iNs = experiment: Lipofuscin ELISA in ANCL iNs; format: cell-based, human; conditions: compared to control; for lipofuscin ELISA signal: ANCL iNs treated for 56 d (prevention), FIG. 7G; for levels of lipofuscin (ELISA): added to ANCL iNs after 56 days of lipofuscin accumulation, 0, 7, 14, 21 d of treatment, FIG. 7I
Protocol: ANCL patient-derived fibroblasts were treated with 200 μM of L1 or Dfx, or vehicle (0.1% DMSO=Control) for 72 h, before measuring the UV-Vis absorbance spectra of immunoprecipitated CSPα eluted by trypsinization (solid lines). Spectra were re-read after 10 min of 0.1 N HCl treatment (dashed lines). The experiments shown in FIGS. 7B-7I, were conducted using ANCL fibroblasts converted to iNs using BAM+ND1 technique. […] Quantitative immunoblotting was used to measure levels of oligomerized and fully palmitoylated CSPα as well as total SNAP-25. Oligo=oligomers; Palm=palmitoylated. […] The interaction of CSPα with SNAP-25 in ANCL iNs was measured by immunoprecipitating SNAP-25 followed by quantitative immunoblotting of co-immunoprecipitated CSPα (normalized to SNAP-25 IP). Note that mainly CSPα monomers and not oligomers were detected bound to SNAP-25. Control=control sham IP without IgG. […] Turnover of SNAP-25 was determined by cycloheximide chase, while maintaining the iron-chelators or vehicle in the medium. […] In the experiments shown in FIGS. 7E-7G, ANCL iNs treated with L1, Dfx, or vehicle for 56 d and analyzed. […] The levels of lipofuscin were determined by ELISA. In the experiments shown in FIGS. 7H-7I 56 day old untreated ANCL iNs were treated with L1, Dfx, or vehicle, and analyzed. […] Data are from FIG. 7A representative of n=4, FIG. 7B n=4, FIG. 7C n=4, FIG. 7D n=7, FIG. 7F n=4, FIG. 7G n=4, FIG. 7H n=6, FIG. 7I n=3. In FIGS. 7B-7C and FIGS. 7F-7G *P<0.05; **P<0.01; ****P<0.0001 by two-tailed Student's t-test. #P<0.05 by Mann-Whitney-Wilcoxon U test. In FIG. 7D-7C and FIGS. 7H-7I **P<0.01; ***P<0.001; ****P<0.0001 by two-way ANOVA; ##P<0.01; ###P<0.001; ####P<0.0001 by Tukey's multiple comparisons test.
iNs from each well of a 6 well dish were solubilized in 100 μl PBS with 0.1% Triton X-100 for 1 h at 4° C. Post nuclear supernatant collected by centrifugation at 1000 gav for 15 min was used for the assay. These samples were analyzed for lipofuscin content using human lipofuscin competitive ELISA (MyBiosource; MBS7217173). Following the colorimetric reaction, optical density at 450 nm was read from the standard and the sample wells using Synergy H1 Hybrid Reader (BioTek).
Effect of iron chelators on the accumulation of lipofuscin was monitored by ELISA for lipofuscin or based on lipofuscin autofluorescence. […] Effect of iron chelators on the accumulation of ATP5G was also studied.
As a treatment paradigm, iron-chelators were also added post-accumulation of lipofuscin. L1 and Dfx were added to ANCL iNs after 56 days of lipofuscin accumulation, and levels of ATP5G and lipofuscin were compared over the subsequent 3 weeks.

CC(=O)N(O)CCCCCNC(=O)CCC(=O)N(O)CCCCCNC(=O)CCC(=O)N(O)CCCCCN [Dfx, N′-[5-(Acetyl-hydroxy-amino)pentyl]-N-[5-[3-(5-aminopentyl-hydroxy-carbamoyl)propanoylamino]pentyl]-N-hydroxy-butane diamide]
UV-Vis signature of Fe—S clusters bound to immunoprecipitated CSPα [1]: reduced
lipofuscin ELISA signal (ANCL iNs): significant reduction
levels of lipofuscin (ELISA) (ANCL iNs): reduced to the levels observed in the prevention experiments

Cc1c(O)c(=O)ccn1C [L1, 3-hydroxy-1,2-dimethyl-4(1H)-pyridone]
UV-Vis signature of Fe—S clusters bound to immunoprecipitated CSPα [1]: reduced
lipofuscin ELISA signal (ANCL iNs): significant reduction
levels of lipofuscin (ELISA) (ANCL iNs): reduced to the levels observed in the prevention experiments

Reference: patent publication US12083105B2, “Compositions and methods for treating adult-onset neuronal ceroid lipofuscinosis (Kufs disease)” (CORNELL UNIVERSITY, priority 2020, dated 2024)
